# How the values were obtained:
# [1] = tested on: despinalisierten Rattenmännchen; experiment: pressor activity on despinalised male rats according to Krejci et al.; assay type: in vivo, Ratten; settings: agonistic activity
# Description: (§1) Die biologische Wirksamkeit wurde an Ratten bestimmt: Die uterotonische (agonistische oder inhibitorische) Wirksamkeit wurde nach Holton (Holton, J. Brit. J. Pharmacol. 3, 328, 1948) in der Bearbeitung nach Munich (Endocrinology 66, 451, 1960) bestimmt; die inhibitorische Aktivität wurde ausgedrückt als pA2 (Eggen et al., J. Gen. Physiol. 56, 250, 1970), die pressorische Wirksamkeit wurde an despinalisierten Rattenmännchen nach Krejci et al., (Brit. J. Pharm. Chemother. 30, 497, 1967) bestimmt, die antidiuretische nach Burn (Burn et al., Biol. Stand., Oxford Univ. Press London 1950). Als Standard wurde für den antidiuretischen Test das [1-Desamino,8-D-Arginin]-Vasopressin (dDAVP) verwendet. Eine Übersicht der biologischen Wirksamkeiten ist der Tabelle 1 zu entnehmen.
# Ratten [2] = experiment: uterotonic (agonistic or inhibitory) activity according to Holton, modified by Munsick (printed 'Munich'); settings: inhibitory activity expressed as pA2, rat
# Description: as §1
# Ratten [3] = experiment: antidiuretic activity according to Burn, standard dDAVP; assay type: in vivo; settings: rat; relative to standard [1-Desamino,8-D-Arginin]-Vasopressin (dDAVP)
# Description: as §1
substance,measurement,setting,value
"[2-p-Methyl-phenylalanin,8-D-Homoarginin]-Vasopressin",Pressorische Wirksamkeit,[1],"0,04 IU/mg"
same,"Uterotonische Wirksamkeit, pA₂",Ratten [2],"pA₂ = 6,85"
same,Antidiuretische Wirksamkeit (% dDAVP),Ratten [3],"< 0,1 % dDAVP"
